Results from US7851503B2, “Thrombopoetin receptor activator and process for producing the same” (Nissan Chemical Industries, Ltd., priority 2002, dated 2010).

Columns and labels:
[1] = test system: UT7/EPO-mpl cells (expressing human TPO receptor (c-mpl)); test: Cell proliferation assay with WST-8 reagent, TPO-dependent cell line UT7/EPO-mpl; type: cell-based; conditions: 4 days incubation, absorbance at 450 nm
Procedure: Stimulation of Proliferation of a Thrombopoietin (TPO)-Dependent Cell Line (2)
The reactivity of a compound of the present invention, 3-methoxyxanthocillin X dimethyl ether, with thrombopoietin (TPO) receptor was assayed using a human leukemic cell line, UT7/EPO-mpl.
(§1) Cells subcultured in the same manner as in Assay Example 1(1) were washed twice with PBS and suspended in IMDM containing 10% FBS at a cell density of 6×10^4 cells/ml. The cell suspension was transferred to a 96-well tissue culture plate (CORNING) in 100-μl aliquots. Then, 3-methoxyxanthocillin X dimethyl ether dissolved in DMSO was diluted 83-fold with IMDM containing 10% FBS and added to the aforementioned cell suspension in 20-μl aliquots. The suspension was incubated in a CO2 incubator (5% CO2, 37° C.) for 4 days. Cell proliferation was assayed using WST-8 reagent (Kishida Chemical Co., Ltd.) according to instructions by the manufacturer. A 10-μl aliquot of 5 mM WST-8 reagent solution was added to each well of the tissue culture plate, and the plate was incubated at 37° C. for 4 h. The formazan pigment generated was detected by measuring the absorbance at 450 nm with a 96-well microplate reader (Nihon Molecular Devices, Spectramax 190).

UT7/EPO cells [2] = test: Cell proliferation assay with WST-8 reagent, mother cell line UT7/EPO expressing no TPO receptor; type: cell-based, human; conditions: 4 days incubation, absorbance at 450 nm
Procedure: as §1

[3] = test system: UT7/EPO-mpl cells (expressing human TPO receptor (c-mpl)); test: Cell proliferation assay by the MTT method, TPO-dependent cell line UT7/EPO-mpl; type: cell-based; conditions: 4 days incubation, absorbance at 550 nm
Procedure: Stimulation of Proliferation of a Thrombopoietin (TPO)-Dependent Cell Line (1)
(§2) The reactivity of a compound of the present invention, xanthocillin X monomethyl ether, with thrombopoietin (TPO) receptor was assayed using a human leukemic cell line, UT7/EPO-mpl. UT7/EPO-mpl is a stable transformed cell line obtained by introducing into human leukemic cell line UT7/EPO a vector that induces expression of human TPO receptor (c-mpl) under control of a cytomegaloviral promoter by the method of Takatoku et al. (J. Biol. Chem., 272:7259-7263 (1997)). […] These two cell lines were subcultured in IMDM (GIBCO) containing 10% fetal bovine serum (FBS; TRACE SCIENTIFIC) using a CO2 incubator (5% CO2, 37° C.).
The subcultured cells described above were washed twice with PBS and suspended in IMDM containing 10% FBS at a cell density of 6×10^4 cells/ml. The cell suspension was transferred to a 96-well tissue culture plate (CORNING) in 100-μl aliquots. Then, xanthocillin X monomethyl ether dissolved in DMSO was diluted 83-fold with IMDM containing 10% FBS and added to the aforementioned cell suspension in 20-μl aliquots. […] The formazan pigment generated was dissolved by adding 150 μl per well of 0.1 M/L HCl/isopropanol solution and the absorbance of the resulting pigment solution was measured at 550 nm with a 96-well microplate reader (BIO-RAD, M450).

UT7/EPO cells [4] = test: Cell proliferation assay by the MTT method, mother cell line UT7/EPO expressing no TPO receptor; type: cell-based, human; conditions: 4 days incubation, absorbance at 550 nm
Procedure: as §2
The subcultured cells described above were washed twice with PBS and suspended in IMDM containing 10% FBS at a cell density of 6×10^4 cells/ml. The cell suspension was transferred to a 96-well tissue culture plate (CORNING) in 100-μl aliquots. Then, xanthocillin X monomethyl ether dissolved in DMSO was diluted 83-fold with IMDM containing 10% FBS and added to the aforementioned cell suspension in 20-μl aliquots. The suspension was incubated in a CO2 incubator (5% CO2, 37° C.) for 4 days. […] The formazan pigment generated was dissolved by adding 150 μl per well of 0.1 M/L HCl/isopropanol solution and the absorbance of the resulting pigment solution was measured at 550 nm with a 96-well microplate reader (BIO-RAD, M450).

Structure (SMILES): [C-]#[N+]C(=Cc1ccc(OC)cc1)C(=Cc1ccc(OC)c(OC)c1)[N+]#[C-] [3-methoxyxanthocillin X dimethyl ether]
- proliferation of TPO-responsive UT7/EPO-mpl cells (WST assay, FIG. 3) [1]: stimulated
- effect on proliferation of UT7/EPO, the mother cell line (WST assay, FIG. 4) (UT7/EPO cells [2]): no effect

Structure (SMILES): [C-]#[N+]C(=C\c1ccc(O)cc1)/C(=C/c1ccc(OC)cc1)[N+]#[C-] [xanthocillin X monomethyl ether]
- proliferation of TPO-responsive UT7/EPO-mpl cells (MTT assay, FIG. 1) [3]: stimulated
- effect on proliferation of UT7/EPO, the mother cell line (MTT assay, FIG. 2) (UT7/EPO cells [4]): no effect
